Results: article PMC5845869 (Frontiers in Microbiology, 2018)
Where two headings read alike, the source gives them in different places. Marks after values point to notes of the source that are not given here. Ends that are not written are not given here.

Columns and labels:
[1] = Thermal unfolding followed by ECD spectroscopy; format: physicochemical
Experimental: ECD spectroscopic measurements were performed using a Jasco-J815 spectropolarimeter (JASCO Corporation, Tokyo, Japan), in the far-UV range (185–260 nm). Protein samples were dissolved in pure H2O in approximately 0.1 mg ml^−1 concentration and measured in a 0.1 cm pathlength quartz cuvette. First, ECD spectra of samples were recorded at 25°C with a scan speed of […]. […] The system was allowed to equilibrate for 1 min before measurements were taken at each temperature point.
The obtained melting curves were fitted with an inverse sigmoidal function of which inflection point designated the melting temperature (Tm) of the native protein structure.
ECD spectra were also recorded at 95°C, the final temperature of the thermal unfolding experiments, then samples were allowed to cool and measured again after 5 min of equilibration at 25°C. The reported spectra are accumulations of 10 scans, from which the similarly recorded, corresponding solvent spectrum was subtracted. Data are given as molar ellipticities. Accurate protein sample concentrations for the corrections of ECD spectra were determined using analytical RP-HPLC.

[2] = system: Candida guilliermondii CBS 566; assay: MIC, broth microdilution in LCM; format: cell-based; conditions: 10^5 cells ml^−1, 48 h, 30°C, MIC = growth ≤ 5% (OD620)
Experimental: (§1) Susceptibility tests were performed in low ionic strength broth medium (LCM: 0.5% glucose, 0.25% yeast extract, 0.0125% peptone (w/v)) and in RPMI 1640 medium (Sigma-Aldrich, St Louis, MO, USA) supplemented with 0.03% (w/v) L-glutamine and buffered to pH 7.0 with 0.165 M 4-morpholinopropanesulfonic acid (Sigma-Aldrich, St Louis, MO, USA).
(§2) Antifungal susceptibility tests were performed with nNFAP2, rNFAP2, and sNFAP2 and its peptide fragments in LCM medium against yeast isolates (10^5 cells ml^−1) according to the broth microdilution method described by Tóth et al. ([2016]). Final drug concentration ranged from 25 to 0.098 μg ml^−1 for rNFAP2 and sNFAP2, and from 100 to 6.25 μg ml^−1 for the synthetic peptide fragments. The rNFAP2 was tested against nine yeast isolates, while the sNFAP2 and the synthetic peptide fragments against C. albicans ATCC 10231, C. krusei CBS 573, C. parapsilosis CBS 604, and S. cerevisiae SZMC 0644.
(§3) LCM plates were incubated at 30°C, while RPMI 1640 plates at 35°C for 48 h without shaking, then the absorbance (OD620) was measured with a microtiter plate reader (SPECTROstar Nano, BMG Labtech, Ortenberg, Germany) after resuspension of the cultures with pipette. The absorbance of the untreated control cultures was referred to 100% growth in each case.
(§4) All susceptibility tests were repeated at least two times in three replicates.

Candida glabrata CBS 138 [3] = assay: MIC, broth microdilution in LCM; format: cell-based; conditions: 10^5 cells ml^−1, 48 h, 30°C, MIC = growth ≤ 5% (OD620)
Experimental: as §1, §2, §3, §4

[4] = system: Schizosaccharomyces pombe SZMC 0142; assay: MIC, broth microdilution in LCM; format: cell-based; conditions: 10^5 cells ml^−1, 48 h, 30°C, MIC = growth ≤ 5% (OD620)
Experimental: as §1, §2, §3, §4

[5] = system: Candida tropicalis CBS 94; assay: MIC, broth microdilution in LCM; format: cell-based; conditions: 10^5 cells ml^−1, 48 h, 30°C, MIC = growth ≤ 5% (OD620)
Experimental: as §1, §2, §3, §4

[6] = system: Candida lusitaniae CBS 6936; assay: MIC, broth microdilution in LCM; format: cell-based; conditions: 10^5 cells ml^−1, 48 h, 30°C, MIC = growth ≤ 5% (OD620)
Experimental: as §1, §2, §3, §4

Candida krusei CBS 573 [7] = assay: Checkerboard microdilution, rNFAP2 with FLC, RPMI 1640; format: cell-based; conditions: rNFAP2 combined with FLC; RPMI 1640, 10^3 cells ml^−1, 48 h, 35°C
Experimental: (§5) Antifungal synergism between rNFAP2 and FLC were investigated using the checkerboard microdilution method (Eliopoulos and Moellering, [1996]) in RPMI 1640 medium applying the drug stock preparation method and cultivation conditions described in CLSI-M27A3 document (Clinical and Laboratory Standards Institute, [2008]). […] The fractional inhibitory concentration index (FICI) as a measure of synergism and antagonism was calculated (Johnson et al., [2004]). Synergism was defined as FICI≤0.5, indifference as 0.5 < FICI ≤ 4 and antagonism was defined when FICI > 4 (Odds, [2003]).
as §3, §4

[8] = system: Candida albicans ATCC 10231; assay: as above; format: cell-based; conditions: rNFAP2 combined with FLC; RPMI 1640, 10^3 cells ml^−1, 48 h, 35°C
Experimental: as §5, §3, §4

[9] = system: Candida parapsilosis CBS 604; assay: as above; format: cell-based; conditions: rNFAP2 combined with FLC; RPMI 1640, 10^3 cells ml^−1, 48 h, 35°C
Experimental: as §5, §3, §4

[10] = system: Candida guilliermondii CBS 566; assay: MIC, CLSI-M27A3 broth microdilution in RPMI 1640; format: cell-based; conditions: RPMI 1640 pH 7.0, 10^3 cells ml^−1, 48 h, 35°C; MIC = growth ≤ 5%
Experimental: as §1
(§6) The CLSI-M27A3 broth microdilution method (Clinical and Laboratory Standards Institute, [2008]) was applied to determinate the minimal inhibitory concentrations (MIC) of FLC (Sigma-Aldrich, St Louis, MO, USA) and rNFAP2 against the Candida isolates (10^3 cells ml^−1) under clinically approved test conditions. For this experiment, the rNFAP2 stock was prepared in bidistilled water, and FLC in dimethyl sulfoxide (DMSO). The investigated concentration range was 64–0.0625 μg ml^−1 for FCL and 100–0.39 μg ml^−1 for rNFAP2.
as §3, §4

Candida glabrata CBS 138 [11] = assay: MIC, CLSI-M27A3 broth microdilution in RPMI 1640; format: cell-based; conditions: RPMI 1640 pH 7.0, 10^3 cells ml^−1, 48 h, 35°C; MIC = growth ≤ 5%
Experimental: as §1, §6, §3, §4

[12] = system: Candida tropicalis CBS 94; assay: MIC, CLSI-M27A3 broth microdilution in RPMI 1640; format: cell-based; conditions: RPMI 1640 pH 7.0, 10^3 cells ml^−1, 48 h, 35°C; MIC = growth ≤ 5%
Experimental: as §1, §6, §3, §4

[13] = system: Candida lusitaniae CBS 6936; assay: MIC, CLSI-M27A3 broth microdilution in RPMI 1640; format: cell-based; conditions: RPMI 1640 pH 7.0, 10^3 cells ml^−1, 48 h, 35°C; MIC = growth ≤ 5%
Experimental: as §1, §6, §3, §4

[14] = system: Candida albicans ATCC 10231; assay: MIC, CLSI-M27A3 broth microdilution in RPMI 1640; format: cell-based
Experimental: as §1, §6, §3, §4

[15] = system: Candida parapsilosis CBS 604; assay: MIC, CLSI-M27A3 broth microdilution in RPMI 1640; format: cell-based
Experimental: as §1, §6, §3, §4

Candida krusei CBS 573 [16] = conditions: LCM, 10^5 cells ml^−1, 48 h, 30°C; MIC = growth ≤ 5% (OD620)
Experimental: as §1, §2, §3, §4

[17] = system: Saccharomyces cerevisiae SZMC 0644; conditions: LCM, 10^5 cells ml^−1, 48 h, 30°C; MIC = growth ≤ 5% (OD620)
Experimental: as §1, §2, §3, §4

[18] = system: Candida albicans ATCC 10231; conditions: LCM, 10^5 cells ml^−1, 48 h, 30°C; MIC = growth ≤ 5% (OD620)
Experimental: as §1, §2, §3, §4

[19] = system: Candida parapsilosis CBS 604; conditions: LCM, 10^5 cells ml^−1, 48 h, 30°C; MIC = growth ≤ 5% (OD620)
Experimental: as §1, §2, §3, §4

Candida krusei CBS 573 [20] = assay: MIC, CLSI-M27A3 broth microdilution in RPMI 1640; format: cell-based; conditions: Pichia kudriavzevii, CBS573, 48 h, pH 7; read-out: MIC of the drug alone (a)
Experimental: as §1, §6, §3, §4

[21] = RPMI 1640 pH 7.0, 10^3 cells ml^−1, 48 h, 35°C, MIC = growth ≤ 5%

For “IATSPYYACNCPNNCKHKKGSGCKYHSGPSDKSKVISGKCEWQGGQLNCIAT (disulfide (positions not given here)) [rNFAP2, recombinant NFAP2 produced by P. chrysogenum nfap2]”, the thermal denaturation reversibility ([1]; ECD at 95°C, then re-measured after cooling, 5 min at 25°C) was “reversible”, the “Tm (melting temperature of the native protein structure)” value ([1]; ECD at 228 nm, 25 to 95°C at 1°C min^−1, approx. 0.1 mg ml^−1 in H2O, inflection of sigmoidal fit) was 75.79 °C and the “native fold remains intact up to” value ([1]; thermal unfolding followed by ECD) was “approximately 70 °C”. For the same compound, the MIC [2] was 1.56 µg/mL, the MIC (Candida glabrata CBS 138 [3]) was 1.56 µg/mL and the MIC [4] was 1.56 µg/mL. The MIC [5] was 1.56 µg/mL, the MIC [6] was 3.125 µg/mL and the “MIC of the drug in combination (c)” value (Candida krusei CBS 573 [7]) was 6.25 µg/mL. For the same compound, the “MIC of the drug in combination (c)” value [8] was 6.25 µg/mL, the “MIC of the drug in combination (c)” value [9] was 6.25 µg/mL and the “MIC of the drug alone (a)” value [10] was 3.125 µg/mL. For the same compound, the “MIC of the drug alone (a)” value (Candida glabrata CBS 138 [11]) was 12.5 µg/mL, the “MIC of the drug alone (a)” value [12] was >100 µg/mL and the “MIC of the drug alone (a)” value [13] was >100 µg/mL. The “MIC of the drug alone (a)” value [14, 21] was 200^* μg ml^−1, the “MIC of the drug alone (a)” value [15, 21] was 100 µg/mL and the MIC (Candida krusei CBS 573 [16]) was 12.5 µg/mL. For the same compound, the MIC [17] was 3.125 µg/mL, the MIC [18] was 6.25 µg/mL and the MIC [19] was 1.56 µg/mL.

In the case of `OC(Cn1cncn1)(Cn1cncn1)c1ccc(F)cc1F` [FLC, fluconazole, reference compound], the “MIC of the drug in combination (c)” value [8] is reported as 0.25 µg/mL, the “MIC of the drug in combination (c)” value [9] is reported as 1 µg/mL and the MIC (Candida krusei CBS 573 [20]) is reported as 64 µg/mL. For the same compound, the MIC ([14]; Candida albicans, ATCC10231, 48 h, pH 7, read-out: MIC of the drug alone (a)) was 1 µg/mL and the MIC ([15]; Lodderomyces parapsilosis, CBS604, 48 h, pH 7, read-out: MIC of the drug alone (a)) was 8 µg/mL.
